One test addresses BRAF (V600E) (Homo sapiens, UniProt P15056, V600E). Kind of test: Kd for RAF kinases: BRAF (V600E). The format is binding.
Another test concerns the target BRAF (Homo sapiens, UniProt P15056). Kind of test: Kd for RAF kinases: BRAF. It is filed as binding.
The target in the next test is CRAF (Homo sapiens, UniProt P04049). As to the kind of experiment: Kd for RAF kinases: CRAF. The format is binding.
The subject of test [1] is ERK 1,2 phosphorylation in A375 cells expressing V600E mutated BRAF. Kind of test: HTRF assay for P-ERK determination in A375 cells (BRAF inhibition). The format is cell-based. As to conditions: Homo sapiens, A-375, 1 h, read-out: pERK IC50 A375. An excerpt:
DMEM no-phenol red medium supplemented with L-glutamine was purchased from (Thermo Fisher Scientific). Fetal bovine serum (FBS) was purchased from VWR. Advanced ERK phospho-T202/Y204 kit-10,000 tests was purchased from Cisbio cat #64AERPEH. A375 and HCT116 cells were originally obtained from ATCC and banked by the Roche repository.
A375 is a cellular cancer model expressing V600E mutated BRAF and HCT116 a cellular cancer model expressing WT BRAF. […] ERK 1,2 phosphorylation (terminal member of the phosphorylation cascade of the MAPK pathway) is hereafter reported as main readout for the activation status of the MAPK pathway. Prior to the assay, A375 and HCT116 cell lines are maintained in DMEM no-phenol red medium supplemented with 10% fetal bovine serum (FBS). […] Briefly, 8000 cells/well in 12 μl media/well are plated in the 384-well plate and left overnight in the incubator (at 37° C. with 5% CO2-humidified atmosphere), the following day the plate is treated in duplicate with test compounds, dabrafenib and PLX8394 (the latter two as controls) at the following final drug concentrations: 10 μM-3 μM-1 μM-0.3 μM-0.1 μM-0.03 μM-0.01 μM-0.003 μM-0.001 μM, all wells are subjected to DMSO normalization and drug incubation occurs for 1 hour. Then, 4 μl of a 4× lysis buffer supplied with the kit are added to the wells, the plate is then centrifuged for 30 second (300 rcf) and incubated on a plate shaker for 1 h at RT.
(§1) At the end of the incubation 4 μL/well of advanced P-ERK antibody solution (prepared according to manufacturer's instruction) followed by 4 μL/well of criptate P-ERK antibody solution (prepared according to manufacturer's instruction) (Cisbio cat #64AERPEH) are added to test wells.
(§2) In order to allow proper data normalization control wells non drug treated reported in the following table are always included in each plate (according to manufacturer's instruction):
(§3) The plate is then centrifuged at 300 rcf for 30 second, sealed to prevent evaporation and incubated overnight in the dark at room temperature.
(§4) The obtained fluorescence values are processed according to the formula Ratio=Signal (620 nm)/Signal (625 nm)*10000 then the average of the ratio on the blank is subtracted to all values.
Data are normalized in the case of A375 cells (BRAF inhibition) considering the average of the ratio (blank subtracted) derived by DMSO only treated cells as 100% and by considering the average of the ratio (blank subtracted) derived by 10 uM dabrafenib treated cells as 0%. Mean of the normalized points are fitted with sigmoidal curve and IC50 determined.
For orientation: Time-resolved FRET reads energy transfer from a long-lived donor to a nearby acceptor.

In test [2] the test system is ERK 1,2 phosphorylation in HCT116 cells expressing WT BRAF. As to the kind of experiment: HTRF assay for P-ERK determination in HCT116 cells (paradoxical BRAF activation). It is filed as cell-based. As to conditions: for Emax: Homo sapiens, HCT-116, read-out: Percentage of maximum paradox inducing effect from dabrafenib; for EC50: read-out: P-ERK EC50 conc. at which the compound induces p-ERK activation of 50% of that induced by dabrafenib (Positive control paradox inducer) HCT-116, HCT-116 cells, 1 hour drug incubation, not applicable = activation does not reach 50% of dabrafenib maximum.
From the text: DMEM no-phenol red medium supplemented with L-glutamine was purchased from (Thermo Fisher Scientific). Fetal bovine serum (FBS) was purchased from VWR. Advanced ERK phospho-T202/Y204 kit-10,000 tests was purchased from Cisbio cat #64AERPEH. A375 and HCT116 cells were originally obtained from ATCC and banked by the Roche repository. 384-well microplates were purchased from Greiner Bio-One, 384-well, (With Lid, HiBase, Low volume cat 784-080).
A375 is a cellular cancer model expressing V600E mutated BRAF and HCT116 a cellular cancer model expressing WT BRAF. First generation BRAF inhibitors such as e.g. dabrafenib induce a paradox effect on tumour cells in that they inhibit the growth of V600E mutated BRAF cells (such as e.g. A375), while they activate growth in WT BRAF cells (such as e.g. HCT 116). ERK 1,2 phosphorylation (terminal member of the phosphorylation cascade of the MAPK pathway) is hereafter reported as main readout for the activation status of the MAPK pathway. Prior to the assay, A375 and HCT116 cell lines are maintained in DMEM no-phenol red medium supplemented with 10% fetal bovine serum (FBS). Following compound treatment, P-ERK levels are determined by measuring FRET fluorescence signal induced by selective binding of 2 antibodies provided in the mentioned kit (Cisbio cat #64AERPEH) on ERK protein when phosphorylated at Thr202/Tyr204. Briefly, 8000 cells/well in 12 μl media/well are plated in the 384-well plate and left overnight in the incubator (at 37° C. with 5% CO2-humidified atmosphere), the following day the plate is treated in duplicate with test compounds, dabrafenib and PLX8394 (the latter two as controls) at the following final drug concentrations: 10 μM-3 μM-1 μM-0.3 μM-0.1 μM-0.03 μM-0.01 μM-0.003 μM-0.001 μM, all wells are subjected to DMSO normalization and drug incubation occurs for 1 hour. Then, 4 μl of a 4× lysis buffer supplied with the kit are added to the wells, the plate is then centrifuged for 30 second (300 rcf) and incubated on a plate shaker for 1 h at RT.
as §1, §2, §3
The plate is then analyzed and fluorescence emission value collected through a Pherastast FSX (BMG Labtech) apparatus at […].
as §4
Data are normalized in the case of HCT116 cells (BRAF activation) considering the average of the ratio (blank subtracted) derived by DMSO only treated cells as 0% and by considering the average of the ratio (blank subtracted) derived by dabrafenib treated cells at the concentration which provides the highest signal as 100%. Individual points are fitted with either sigmoidal or bell shape curves, and the percentage of activation compared to maximum dabrafenib-mediated activation is determined. The EC50 is the concentration at which activation equal to 50% of the maximum achieved by dabrafenib is obtained.
The Percentage of Maximum paradox inducing effect from dabrafenib is determined by evaluating the percentage at which the test compound induce its maximum P-ERK signal as percentage of the highest signal produced by dabrafenib within the dose range tested.

Experimental findings from patent US20220298145A1, “BRAF INHIBITORS AS PARADOX BREAKERS” (Hoffmann-La Roche Inc., priority 2019, published 2022) are described below.

Read-outs that look alike come from different tables or passages of the source.

CRAF, sequence (P04049 whole entry): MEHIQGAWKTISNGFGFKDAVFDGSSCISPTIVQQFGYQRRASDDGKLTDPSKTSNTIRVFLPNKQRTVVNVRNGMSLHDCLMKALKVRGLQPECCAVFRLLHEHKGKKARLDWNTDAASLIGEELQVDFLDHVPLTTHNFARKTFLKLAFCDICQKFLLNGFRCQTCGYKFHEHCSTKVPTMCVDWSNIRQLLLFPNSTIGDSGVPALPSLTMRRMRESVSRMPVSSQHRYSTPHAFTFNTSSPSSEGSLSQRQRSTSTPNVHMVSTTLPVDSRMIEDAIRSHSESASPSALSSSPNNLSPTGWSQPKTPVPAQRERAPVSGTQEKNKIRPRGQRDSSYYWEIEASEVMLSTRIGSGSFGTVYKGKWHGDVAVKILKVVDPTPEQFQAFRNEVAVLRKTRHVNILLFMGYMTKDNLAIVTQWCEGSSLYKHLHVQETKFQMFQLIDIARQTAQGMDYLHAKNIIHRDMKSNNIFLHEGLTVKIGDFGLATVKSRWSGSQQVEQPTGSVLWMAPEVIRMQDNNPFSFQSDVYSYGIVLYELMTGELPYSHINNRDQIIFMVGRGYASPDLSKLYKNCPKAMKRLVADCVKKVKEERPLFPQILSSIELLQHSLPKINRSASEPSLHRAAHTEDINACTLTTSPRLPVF
BRAF (V600E), sequence (P15056 whole entry V600E): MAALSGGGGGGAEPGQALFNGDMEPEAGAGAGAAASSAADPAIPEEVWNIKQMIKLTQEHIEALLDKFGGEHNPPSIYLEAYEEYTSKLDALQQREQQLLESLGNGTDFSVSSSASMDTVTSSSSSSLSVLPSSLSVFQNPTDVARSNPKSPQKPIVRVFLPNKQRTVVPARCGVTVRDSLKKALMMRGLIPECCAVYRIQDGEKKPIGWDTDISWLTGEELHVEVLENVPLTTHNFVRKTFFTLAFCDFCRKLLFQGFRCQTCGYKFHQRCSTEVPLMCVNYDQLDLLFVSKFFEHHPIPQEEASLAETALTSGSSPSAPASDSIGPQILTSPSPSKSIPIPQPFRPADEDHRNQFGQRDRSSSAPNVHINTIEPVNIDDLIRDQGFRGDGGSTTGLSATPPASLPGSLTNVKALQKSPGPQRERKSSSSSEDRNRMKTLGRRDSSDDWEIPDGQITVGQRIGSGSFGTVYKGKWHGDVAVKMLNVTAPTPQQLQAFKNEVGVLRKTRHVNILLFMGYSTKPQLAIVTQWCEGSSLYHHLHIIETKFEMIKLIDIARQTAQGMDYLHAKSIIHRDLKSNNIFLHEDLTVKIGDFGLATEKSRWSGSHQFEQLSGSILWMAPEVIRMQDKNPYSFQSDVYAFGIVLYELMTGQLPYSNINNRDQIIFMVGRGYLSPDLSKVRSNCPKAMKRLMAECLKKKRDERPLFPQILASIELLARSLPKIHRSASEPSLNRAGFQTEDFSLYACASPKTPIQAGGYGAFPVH
BRAF, sequence (P15056 whole entry): as the sequence (P15056 whole entry V600E) above, with E600V counted along it

As usually defined, the Kd is the equilibrium constant for the complex coming apart. A word on the IC50: it is the point on the concentration scale where inhibition reaches its midpoint. In the case of `CCC(C)S(=O)(=O)Nc1cccc(Oc2ccc3ncn(C)c(=O)c3c2)c1C#N` (racemic) [Example 10, (RS)—N-[2-cyano-3-(3-methyl-4-oxo-quinazolin-6-yl)oxy-phenyl]butane-2-sulfonamide], the Kd was determined as 14.4 nM on BRAF (V600E), 3.9 nM on BRAF and 6.8 nM at CRAF. Also, the IC50 in test [1] was 8.8 nM. Moreover, the Emax in test [2] turned out to be 21%.

The term EC50 denotes the midpoint of the concentration-response curve. With `CCN(C)S(=O)(=O)Nc1ccc(F)c(Oc2ccc3ncn(C)c(=O)c3c2)c1C#N` [Example 1, 6-[2-cyano-3-[[ethyl(methyl)sulfamoyl]amino]-6-fluoro-phenoxy]-3-methyl-4-oxo-quinazoline], the results for the Kd on BRAF (V600E) (read-out: Kd BRAF (V600E)), at BRAF (read-out: Kd BRAF) and at CRAF were 3.4 nM, 1.6 nM and 6.3 nM, respectively. Further, the IC50 in test [1] is 5.5 nM. Moreover, the Emax in test [2] came to 56%. For the same molecule, in test [2], the EC50 is over 1000 nM.

Take `CCN(C)S(=O)(=O)Nc1ccc(Cl)c(Oc2ccc3ncn(C)c(=O)c3c2)c1C#N` [Example 2, 6-[6-chloro-2-cyano-3-[[ethyl(methyl)sulfamoyl]amino]phenoxy]-3-methyl-4-oxo-quinazoline]: the Kd on BRAF (V600E) was 36.8 nM; on BRAF it was 30.4 nM; on CRAF, 5.4 nM. Besides, the IC50 in test [1] was determined as 28.6 nM. Besides, in test [2], the Emax turned out to be 69%. Further, the EC50 in test [2] is over 1000 nM.

For the molecule `Cn1cnc2ccc(Oc3c(Cl)ccc(NS(=O)(=O)N4CC[C@@H](F)C4)c3C#N)cc2c1=O` [Example 3, (3R)—N-[4-chloro-2-cyano-3-(3-methyl-4-oxo-quinazolin-6-yl)oxy-phenyl]-3-fluoro-pyrrolidine-1-sulfonamide], the Kd on BRAF (V600E) was 6.3 nM; at BRAF, 10 nM; on CRAF, 9.4 nM. Moreover, the half-inhibitory concentration (IC50) in test [1] is 14.8 nM. Moreover, in test [2], the Emax worked out at 61%. In addition, the EC50 in test [2] is over 1000 nM.

Regarding `Cn1cnc2ccc(Oc3c(Cl)ccc(NS(=O)(=O)N4CCCC4)c3C#N)cc2c1=O` [Example 4, N-[4-chloro-2-cyano-3-(3-methyl-4-oxo-quinazolin-6-yl)oxy-phenyl]pyrrolidine-1-sulfonamide], the values for the Kd on BRAF (V600E), on BRAF and on CRAF were 4.6 nM, 2.1 nM and 1.6 nM, respectively. Also, in test [1], the IC50 was determined as 34.3 nM. In addition, in test [2], the Emax came to 65%. The EC50 in test [2] worked out at 714 nM.

Regarding `CCN(C)S(=O)(=O)Nc1cccc(Oc2ccc3ncn(C)c(=O)c3c2)c1C#N` [Example 5, 6-[2-cyano-3-[[ethyl(methyl)sulfamoyl]amino]phenoxy]-3-methyl-4-oxo-quinazoline], the Kd at BRAF (V600E) was found to be 32.3 nM; on BRAF, 10.6 nM; on CRAF, 7.2 nM. Also, the 50% inhibitory concentration (IC50) in test [1] is 52.5 nM. For the same molecule, in test [2], the Emax came to 61%. Besides, the EC50 in test [2] was over 1000 nM.

As to `Cn1cnc2ccc(Oc3cccc(NS(=O)(=O)N4CCCC4)c3C#N)cc2c1=O` [Example 6, N-[2-cyano-3-(3-methyl-4-oxo-quinazolin-6-yl)oxy-phenyl]pyrrolidine-1-sulfonamide], the equilibrium dissociation constant (Kd) on BRAF (V600E) came out at 2.6 nM; at BRAF, 1.6 nM; at CRAF, 1.1 nM. Moreover, the IC50 in test [1] was 17.1 nM. In addition, in test [2], the Emax was 59%. The 50% effective concentration (EC50) in test [2] worked out at 648 nM.

With `Cn1cnc2ccc(Oc3cccc(NS(=O)(=O)N4CC[C@@H](F)C4)c3C#N)cc2c1=O` [Example 7, (3R)—N-[2-cyano-3-(3-methyl-4-oxo-quinazolin-6-yl)oxy-phenyl]-3-fluoro-pyrrolidine-1-sulfonamide], the Kd at BRAF (V600E) amounted to 4.5 nM; on BRAF, 8.9 nM; on CRAF, 8.9 nM. In addition, in test [1], the 50% inhibitory concentration (IC50) was 26.2 nM. Moreover, the Emax in test [2] came to 32%.

As for `Cn1cnc2ccc(Oc3cccc(NS(=O)(=O)C4CCCC4)c3C#N)cc2c1=O` [Example 8, N-[2-cyano-3-(3-methyl-4-oxo-quinazolin-6-yl)oxy-phenyl]cyclopentanesulfonamide], the Kd at BRAF (V600E) amounted to 7 nM; at BRAF, 3.3 nM; at CRAF, 1.8 nM. Further, the IC50 in test [1] was 5.3 nM. In addition, the Emax in test [2] worked out at 63%. The concentration for a half-maximal effect (EC50) in test [2] stood at 412 nM.

Consider `Cn1cnc2ccc(Oc3cccc(NS(=O)(=O)C4CCCCC4)c3C#N)cc2c1=O` [Example 9, N-[2-cyano-3-(3-methyl-4-oxo-quinazolin-6-yl)oxy-phenyl]cyclohexanesulfonamide], for which the Kd at BRAF (V600E) (read-out: Kd BRAF (V600E)) was found to be 4 nM; on BRAF (read-out: Kd BRAF) it was 2.4 nM; at CRAF, 0.8 nM. Besides, the IC50 in test [1] amounted to 13.9 nM. Moreover, the Emax in test [2] was determined as 44%.

Turning to `CCN(C)S(=O)(=O)Nc1cccc(Nc2ccc3ncn(C)c(=O)c3c2)c1C#N` [Example 11, 6-[2-cyano-3-[[ethyl(methyl)sulfamoyl]amino]anilino]-3-methyl-4-oxo-quinazoline], the Kd was determined as 26.5 nM on BRAF (V600E) (read-out: Kd BRAF (V600E)), 11.6 nM at BRAF (read-out: Kd BRAF) and 52.3 nM at CRAF. The 50% inhibitory concentration (IC50) in test [1] stood at 19.7 nM. For the same molecule, the Emax in test [2] worked out at 61%. Besides, the EC50 in test [2] is over 1000 nM.

Consider `Cn1cnc2ccc(Nc3cccc(NS(=O)(=O)N4CC[C@@H](F)C4)c3C#N)cc2c1=O` [Example 12, (3R)—N-[2-cyano-3-[(3-methyl-4-oxo-quinazolin-6-yl)amino]phenyl]-3-fluoro-pyrrolidine-1-sulfonamide], for which the values for the Kd at BRAF (V600E), at BRAF and on CRAF were 7.5 nM, 2 nM and 9.8 nM, respectively. The IC50 in test [1] is 9.2 nM. Moreover, in test [2], the Emax came out at 49%.

As to `CCN(C)S(=O)(=O)Nc1ccc(Cl)c(Nc2ccc3ncn(C)c(=O)c3c2)c1C#N` [Example 13, 6-[6-chloro-2-cyano-3-[[ethyl(methyl)sulfamoyl]amino]anilino]-3-methyl-4-oxo-quinazoline], the Kd at BRAF (V600E) worked out at 10 nM; at BRAF, 4.3 nM; on CRAF, 6.8 nM. The IC50 in test [1] stood at 14.8 nM. For the same molecule, the Emax in test [2] turned out to be 67%. The EC50 in test [2] is over 1000 nM.
